Results on three molecules are retold here after US7893299B2, “Interleukin-1 and tumor necrosis factor-αmodulators; syntheses of such modulators and methods of using such modulators” (Nereus Pharmaceuticals, Inc., priority 2005, dated 2011).

The test system of one test is PC-3 cells. In words: cell growth inhibition, PC-3, Resazurin, 1% FBS. The test is classed as cell-based, Human. The following applies: 48 hr of drug exposure. The procedure: (§1) Human prostate adenocarcinoma (PC-3; CRL-1435), multiple myeloma (RPMI 8226; CCL-155) and embryonic kidney (HEK-293; CRL-1573) cells were all purchased from ATCC and maintained in appropriate culture media. The cells were cultured in an incubator at 37° C. in 5% CO2 and 95% humidified air.
(§2) For cell growth inhibition assays, PC-3 and HEK-293 cells were seeded at 5×10^3 and 1.5×10^3 cells/well respectively in 90 μl media containing 1% (v/v) FBS into 96 well (Corning; 3904) black-walled, clear-bottom tissue culture plates and the plates were incubated overnight to allow cells to establish and enter log phase growth. RPMI 8226 cells were seeded at 2×10^4 cells/well respectively in 90 μl media containing 1% (v/v) FBS into 96 well plates on the day of the assay. 4 mg/ml stock solutions of the compounds were prepared in 100% DMSO and stored at −20° C. The compounds were serially diluted and added in triplicate to the test wells. LT-1-85 was tested at concentrations ranging from 27 μM to 8.6 nM. Concentrations ranging from 30 μM to 9.7 nM were tested for CC-3-13P. Formula (IIB-A1) was tested at concentrations ranging from 26 μM to 8.4 nM. The plates were returned to the incubator for 48 hours. The final concentration of DMSO was 0.25% in all samples.
(§3) Following 48 hours of drug exposure, 10 μl of 0.2 mg/ml Resazurin in Mg2+, Ca2+ free phosphate buffered saline was added to each well and the plates were returned to the incubator for 3-6 hours. Since living cells metabolize Resazurin, the fluorescence of the reduction product of Resazurin was measured using a Fusion microplate fluorometer (Packard Bioscience) with λex=535 nm and λem=590 nm filters. Resazurin dye in medium without cells was used to determine the background, which was subtracted from the data for all experimental wells. […] Where the maximum inhibition of cell growth was less than 50%, an EC50 value was not determined. The data in Table 25 summarize the growth inhibitory effects of LT-1-85, CC-3-13P and formula (IIB-A1) against HEK-293, PC-3 and RPMI 8226 cells. The EC50 values indicate that LT-1-85 and CC-3-13P are cytotoxic against HEK-293, PC-3 and RPMI 8226 cells. Formula (IIB-A1) is cytotoxic against RPMI 8226 cells.
(In general: The colour change of resazurin is a common sign of viable cells or microbes.)

In the next test the test system is RPMI 8226 cells. In words: cell growth inhibition, RPMI 8226, Resazurin, 1% FBS. The test is classed as cell-based, Human. The following applies: 48 hr of drug exposure. The protocol:
as §1, §2, §3

A further test relates to NO. The test is classed as cell-based, Murine. Conditions: 10 μM. The protocol: After 2 days in culture the medium was replaced by phenol-red free RPMI 1640 medium supplemented with 0.5 mM arginine and 2% FCS followed by the addition of the indicated stimuli. TTL3, TTL1, LT-1-45, LT-1-85 and formula (IIB-A1) were added to cells at the final concentration of 10 μM for 15 min. DMSO was used as a control. Cells were then stimulated with 200 ng/ml of LPS and 20 units/ml of IFNγ for 18 hr. NO release was measured as the accumulation of nitrite and nitrate in the incubation medium (phenol-red free). Nitrate was reduced to nitrite with nitrate reductase and was determined spectrophotometrically with Griess reagent. To determine the protein levels of COX-2 and NOS-2, cells (1.5×10^6) were washed with PBS and collected by centrifugation. Cell pellets were homogenized with 100 μl of buffer A (10 mM Hepes; pH 7.9, 1 mM EDTA, 1 mM EGTA, 100 mM KCl, 1 mM dithiothreitol, 0.5 mM phenylmethylsulfonyl fluoride, 2 μg/ml aprotinin, 10 μg/ml leupeptin, 2 μg/ml Nα-p-tosyl-L-lysine chloromethyl ketone, 5 mM NaF, 1 mM Na3VO4, 10 mM Na2MoO4). After 10 min at 4° C., Nonidet P-40 was added to reach a 0.5% concentration. The tubes were gently vortexed for 15 sec and centrifuged at 8,000×g for 15 min. The supernatants were stored at −80° C. until use. Protein content was assayed using the Bio-Rad protein reagent. Protein extracts were separated by 10% SDS-polyacrylamide gel electrophoresis. The gels were blotted onto a Hybond P membrane and then incubated with appropriate primary antibodies: anti-NOS-2 or anti-cyclooxygenase-2. Antibody against β-actin was used as a control to confirm the loading of each sample. […] Different exposure times of the films were used to ensure that bands were not saturated. Quantification of the films was performed by laser densitometry.

A further test relates to TPA-induced ear edema. In words: TPA-induced mouse ear edema model. The following applies: 500 ng per ear topically with TPA, 4 h. The test is classed as in vivo. The protocol:
2.5 μg of TPA dissolved in 20 μl of DMSO, was applied to both surfaces of the right ear of each mouse. The left ear (control) received the vehicle (DMSO). Tested compounds were administered topically (500 ng per ear in 20 μl of DMSO) simultaneously with TPA application. The reference drug, indomethacin, was administered at the same doses. After 4 h, the animals were killed by cervical dislocation and a 6 mm diameter disc from each ear was removed with a metal punch and weighed. Ear edema was calculated by subtracting the weight of the left ear (vehicle) from the right ear (treatment). Ear sections were homogenized in 750 μl of saline. After centrifugation at 10000×g for 15 min at 4° C., myeloperoxidase (MPO) activity was measured in supernatants.

Test [1] has as its system TNF-α production in THP-1 cells. In words: LPS-induced TNF-α production in differentiated THP-1 cells (FLISA). The test is classed as cell-based. The following applies: Homo sapiens, read-out: Percent TNF-α Inhibition; for inhibition at 0.1 µg/mL: 100 ng/ml; for inhibition at 1 µg/mL: 1 ug/ml; for inhibition at 10 µg/mL: 10 ug/ml. The protocol: The ability to inhibit TNF-α production was analyzed in THP-1 cells, a human acute monocytic leukemia cell line that is widely used to assess monocyte functions. In order to induce maturation, THP-1 cells were plated at 1×10^6 cells/ml and pretreated with 5 nM PMA for two days. Differentiated THP-1 cells were pretreated with various concentrations of TTL3 or its analogs for 1 hour, followed by a 4 hour incubation with 1 μg of LPS (Sigma, St. Louse, Mo.). The p38 inhibitor (SB 203580; Sigma, St. Louis, Mo.) was used as a positive control. Supernatants were collected and stored at −80° C. until assayed for TNF-α activity. A resazurin assay was performed for each analog to evaluate the effects on cell metabolism and viability.
To detect the presence of human TNFα, fluorescent linked immunosorbent assay or FLISA was developed and optimized. 100 μl of beads (6 μm, Spherotech) coated with goat anti-mouse IgG (1 mg/ml, R and D Systems) were mixed with 4 μl of biotin-anti-hTNFα mouse IgG (0.1 mg/ml, R and D Systems) and 2 μl of FMAT Blue-streptavidin (0.1 mg/ml, Applied Biosystems). 50 μl of the mixtures was combined with 50 μl of the supernatant isolated from treated THP-1 cells and added to the black wall FLISA plates (Applied Biosystems) and incubated overnight. The plates were scanned at factory set PMT setting, and the values were plotted and analyzed by Applied Biosystems software.

“Also recorded” adds a separate entry of the source.

Broadly, the EC50 is the concentration needed to bring the measured effect to its halfway point. Low values mean higher potency in that assay, high ones lower potency in that assay. `C=C[C@@]1(C)CCC=C2[C@H]1CC[C@@H]1[C@](C)(C(=O)NC3CCCCC3)CCC[C@@]21C` [Formula (IIB-A1), N-Cyclohexylamide Derivative of TTL]: the EC50 in the test on PC-3 cells (Homo sapiens, PC-3, 48 h) was greater than 26 µM; in the test with RPMI 8226 cells (Homo sapiens, RPMI-8226, 48 h) it was 21 µM. Further, the “synthesis of NO induced by LPS/IFNγ” value in the test with NO is given as “also reduced”. The ear edema result was “inhibit TPA-induced ear edema” with TPA-induced ear edema and “significantly reduced” with TPA-induced ear edema (listed as formula (IIB-A1)). For the same molecule, the myeloperoxidase activity result in the test with TPA-induced ear edema was “significantly attenuated”.

As usually defined, the inhibition is the change of the read-out against control, counted positive when it falls. `C=C[C@@]1(C)CCC=C2[C@H]1CC[C@@H]1[C@](C)(C(=O)N3CCOCC3)CCC[C@@]21C` [LT-1-85]: the inhibition at 0.1 µg/mL in test [1] was 10%. Also, the inhibition at 1 µg/mL in test [1] is 45%. Besides, the inhibition at 10 µg/mL in test [1] is 55%. Moreover, the EC50 in the test on PC-3 cells was 19 µM; with PC-3 cells (Homo sapiens, PC-3, 48 h) it was 22 µM; with RPMI 8226 cells, 13 µM; in the test on RPMI 8226 cells (Homo sapiens, RPMI-8226, 48 h), 14 µM. For the same molecule, the “synthesis of NO induced by LPS/IFNγ” value in the test on NO is “also reduced”.

Take `C=C[C@@]1(C)CCC=C2[C@H]1CC[C@@H]1[C@](C)(C(=O)OC)CCC[C@@]21C` [TTL3]: in test [1], the inhibition at 0.1 µg/mL was 30%, the inhibition at 1 µg/mL was determined as 55% and the inhibition at 10 µg/mL was determined as 70%. In addition, the “synthesis of NO induced by LPS/IFNγ” value in the test with NO is “also reduced”. In the test with TPA-induced ear edema, the ear edema result is recorded as “significantly reduced; also recorded: inhibit TPA-induced ear edema” and the myeloperoxidase activity result was “significantly attenuated”.
